Experimental findings from patent US20040082551A1, “Novel pyrazoles and their use as p38 kinase inhibitors” (priority 2002, published 2004) are described below.

Values joined by “and” are separate entries in the source; they are usually repeats but may differ in a detail not shown here. Equal entries are not always repeated.

The first assay deals with T1, human p38 kinase alpha (Homo sapiens, UniProt Q16539).
T1 construct: The coding region of the human p38α cDNA was obtained by PCR-amplification from RNA isolated from the human monocyte cell line THP.1; made in house; host or cells: E. coli DH10B
T1 sequence (Q16539 whole entry): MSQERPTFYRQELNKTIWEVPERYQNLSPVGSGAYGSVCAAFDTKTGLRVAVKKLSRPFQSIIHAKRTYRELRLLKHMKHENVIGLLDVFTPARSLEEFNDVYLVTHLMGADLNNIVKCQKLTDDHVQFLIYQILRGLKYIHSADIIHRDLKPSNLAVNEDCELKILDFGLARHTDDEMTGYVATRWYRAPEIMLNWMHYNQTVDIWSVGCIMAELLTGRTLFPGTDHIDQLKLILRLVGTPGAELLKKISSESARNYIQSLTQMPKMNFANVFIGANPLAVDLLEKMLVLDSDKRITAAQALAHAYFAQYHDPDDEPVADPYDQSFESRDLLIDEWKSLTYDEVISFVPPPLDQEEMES
Put plainly: In vitro p38 kinase inhibition analysis (PHAS-I 32P-ATP or EGFRP 33P-ATP format). The settings on record: Table 1; compounds of Examples 1-28; one of two in vitro assay methods; Phosphate Dihydrate; read-out: p38α Kinase Inhibition (IC50 in μM). The format is biochemical. As to the method: The ability of compounds to inhibit human p38 kinase alpha was evaluated using one of two in vitro assay methods. In the first method, activated human p38 kinase alpha phosphorylates a biotinylated substrate, PHAS-I (phosphorylated heat and acid stable protein-insulin inducible), in the presence of gamma ^32P-ATP (^32P-ATP). PHAS-I was biotinylated before the assay, and provided a means of capturing the substrate which was phosphorylated during the assay. p38 Kinase was activated by MKK6. Compounds were tested in 10 fold serial dilutions over the range of 100 μM to 0.001 μM using 1% DMSO. Each concentration of inhibitor was tested in triplicate.
All reactions were carried out in 96 well polypropylene plates. Each reaction well contained 25 mM HEPES pH 7.5, 10 mM magnesium acetate, and 50 μM unlabeled ATP. […] Activated human p38 kinase alpha was used at 1 μg per 50 μl reaction volume, representing a final concentration of 0.3 μM. Gamma ^32P-ATP was used to follow the phosphorylation of PHAS-I. ^32P-ATP has a specific activity of 3000 Ci/mmol, and was used at 1.2 μCi per 50 μl reaction volume. The reaction proceeded either for one hr or overnight at 30° C.
Following incubation, 20 μl of reaction mixture was transferred to a high capacity streptavidin coated filter plate (SAM-streptavidin-matrix, Promega) prewetted with phosphate buffered saline. The transferred reaction mix was allowed to contact the streptavidin membrane of the Promega plate for 1-2 min. […] Filter plates were air dried and 20 μl of scintillant was added. The plates were sealed and counted.
A second assay format was alternatively employed. This assay is based on p38 kinase alpha being induced phosphorylation of EGFRP (epidermal growth factor receptor peptide, a 21 mer) in the presence of ^33P-ATP. Compounds were tested in 10 fold serial dilutions over the range of 100 μM to 0.001 μM in 10% DMSO. Each concentration of inhibitor was tested in triplicate. Compounds were evaluated in 50 μl reaction volumes in the presence of 25 mM HEPES pH 7.5, 10 mM magnesium acetate, 4% glycerol, 0.4% bovine serum albumin, 0.4 mM DTT, 50 μM unlabeled ATP, 25 μg EGFRP (200 μM), and 0.05 uCi gamma ^33P-ATP. Reactions were initiated by addition of 0.09 μg of activated, purified human GST-p38 kinase alpha. Activation was carried out using GST-MKK6 (5:1,p38:MKK6) for one hr at 30° C. in the presence of 50 μM ATP. Following incubation for 60 min at room temperature, the reaction was stopped by addition of 150 μl of AG 1×8 resin in 900 mM sodium formate buffer, pH 3.0 (1 volume resin to 2 volumes buffer). The mixture was mixed three times with pipetting. Afterward, the resin was allowed to settle. A total of 50 μl of clarified solution head volume was transferred from the reaction wells to Microlite-2 plates. 150 μl of Microscint 40 was then added to each well of the Microlite plate, and the plate was sealed, mixed, and counted.
As to `O=C(COP(=O)(O)O)N1CCC(c2[nH]nc(-c3ccc(Cl)cc3)c2-c2ccncn2)CC1` [Example 23, mono-sodium 2-{4-[3-(4-chlorophenyl)-4-pyrimidin-4-yl-1H-pyrazol-5-yl]piperidin-1-yl}-2-oxoethyl Dihydrogen Phosphate Dihydrate], the IC50 worked out at 0.0681 µM.

The assay is the same for the next values; noted with them: Table 1; compounds of Examples 1-28; one of two in vitro assay methods; read-out: p38α Kinase Inhibition (IC50 in μM).
On to `Clc1ccc(-c2n[nH]c([C@H]3CC[C@H](NC4CCCCC4)CC3)c2-c2ccncn2)cc1` [Example 3, 4-[3-(4-chlorophenyl)-4-pyrimidin-4-yl-1H-pyrazol-5-yl]-N-cyclohexyltrans-cyclohexanamine], for which the IC50 came to 0.0452 µM.
With `CC(C)N[C@H]1CC[C@H](c2[nH]nc(-c3ccc(F)c(C(F)(F)F)c3)c2-c2ccncn2)CC1` [Example 14, 4-{3-[4-fluoro-3-(trifluoromethyl)phenyl]-4-pyrimidin-4-yl-1H-pyrazol-5-yl}-N-isopropylcyclohexanamine], the IC50 was 0.0723 µM.
For the compound `Clc1ccc(-c2n[nH]c([C@H]3CC[C@H](NC4CCCCC4)CC3)c2-c2ccncn2)cc1` [Example 4], the IC50 was 0.0379 µM.
As to `O=C(COP(=O)(O)O)N1CCC(c2[nH]nc(-c3ccc(Cl)cc3)c2-c2ccncn2)CC1` [Example 22, 2-{4-[3-(4-chlorophenyl)-4-pyrimidin-4-yl-1H-pyrazol-5-yl]piperidin-1-yl}-2-oxoethyl Dihydrogen Phosphate], the IC50 was 0.00607 µM.
`Fc1ccc(CN2CCC(c3[nH]nc(-c4ccc(Cl)cc4)c3-c3ccncn3)CC2)cc1` [Example 19, 4-{3-(4-chlorophenyl)-5-[1-(4-fluorobenzyl)piperidin-4-yl]-1H-pyrazol-4-yl}pyrimidine]: the IC50 is 0.102 µM.

The assay is the same for the next values; noted with them: Table 2; additional pyrazole compounds, Examples 56-169; read-out: p38α Kinase Inhibition (IC50 in μM).
Take `O=C(CO)N1CCC(c2[nH]nc(-c3ccc(Cl)cc3F)c2-c2ccnc(NC3CCCC3)n2)CC1` [Example 154]: the IC50 was found to be 0.0176 µM.
Regarding `COc1cccc(-c2n[nH]c(C3CCN(C(=O)CO)CC3)c2-c2ccncn2)c1` [Example 85], the IC50 is 2.1 µM.
In the case of `CN(C)CCNc1nccc(-c2c(-c3ccc(Cl)cc3F)n[nH]c2C2CCNCC2)n1` [Example 161], the IC50 is 0.202 µM.
The same measure, in the same setting: in the case of `C[C@H](O)C(=O)N1CCC(c2[nH]nc(-c3cc(F)cc(Cl)c3)c2-c2ccncn2)CC1` [Example 108] it was 1.62 µM; in that of `O=C(CO)N1CCC(c2[nH]nc(-c3cccc(C(F)(F)F)c3F)c2-c2ccncn2)CC1` [Example 103], 5.46 µM.
As to `FC(F)(F)c1cc(-c2n[nH]c(C3CCNCC3)c2-c2ccnc(NC3CCCC3)n2)ccc1NC1CCCC1` [Example 165], the IC50 amounted to 0.424 µM.
Same read-out and setting: as for `C[C@@H](O)C(=O)N1CCC(c2[nH]nc(-c3cccc(Cl)c3F)c2-c2ccncn2)CC1` [Example 114], the figure is 0.411 µM.
Still for that read-out and setting: as for `CC(C)CCNc1nccc(-c2c(-c3ccc(Cl)cc3)n[nH]c2C2CCN(C(=O)CO)CC2)n1` [Example 100], the figure is 0.859 µM; as for `N#Cc1ccc(-c2n[nH]c(C3CCN(C(=O)CO)CC3)c2-c2ccncn2)cc1` [Example 74], 7.06 µM; as for `C[C@H](O)[C@@H](O)C(=O)N1CCC(c2[nH]nc(-c3ccc(Cl)cc3)c2-c2ccncn2)CC1` [Example 64], 0.596 µM.
On the same count and under the same terms, as for `O=C(CO)N1CCC(c2[nH]nc(-c3ccc(Cl)cc3)c2-c2ccnc(NC3CCN(Cc4ccccc4)CC3)n2)CC1` [Example 151], the figure is 0.053 µM.
In the case of `CN(C)CCOc1nccc(-c2c(-c3ccc(Cl)cc3F)n[nH]c2C2CCN(C(=O)CO)CC2)n1` [Example 158], the IC50 is 1.3 µM and 0.647 µM.
As to `O=C(CO)N1CCC(c2[nH]nc(-c3cccc(OC(F)(F)F)c3)c2-c2ccncn2)CC1` [Example 83], the IC50 came out at 25.7 µM.
Still for that read-out and setting: as for `CN(C)CCNc1nccc(-c2c(-c3cccc(Cl)c3)n[nH]c2C2CCN(C(=O)OC(C)(C)C)CC2)n1` [Example 145], the figure is 4.1 µM; as for `O=C(CO)N1CCC(c2[nH]nc(-c3c(F)cccc3F)c2-c2ccncn2)CC1` [Example 81], 4.82 µM.
For the compound `O=C(CO)N1CCC(c2[nH]nc(-c3ccc(Cl)c(Cl)c3)c2-c2ccncn2)CC1` [Example 69], the IC50 came to 0.133 µM.
With `CN(C)CCNc1nccc(-c2c(-c3cccc(Cl)c3)n[nH]c2C2CCN(C(=O)CO)CC2)n1` [Example 117], the IC50 turned out to be 0.699 µM.
Take `CN(C)CCOc1nccc(-c2c(-c3ccc(F)c(C(F)(F)F)c3)n[nH]c2C2CCNCC2)n1` [Example 155]: the IC50 came to 0.527 µM.
On the same count and under the same terms, in the case of `O=C(CO)N1CCC(c2[nH]nc(-c3cc(Cl)cc(Cl)c3)c2-c2ccncn2)CC1` [Example 75] it was 3.39 µM; in that of `O=C(CO)N1CCC(c2[nH]nc(-c3cc(F)cc(C(F)(F)F)c3)c2-c2ccncn2)CC1` [Example 101], 2.71 µM.
On the same count and under the same terms, as for `CN(C)CCOc1nccc(-c2c(-c3ccc(F)c(C(F)(F)F)c3)n[nH]c2C2CCN(C(=O)CO)CC2)n1` [Example 139], the figure is 0.854 µM; as for `Cc1ccc(-c2n[nH]c(C3CCN(C(=O)CO)CC3)c2-c2ccncn2)cc1Cl` [Example 71], 0.444 µM.
Consider `CN(C)CCOc1nccc(-c2c(-c3ccc(Cl)cc3F)n[nH]c2C2CCNCC2)n1` [Example 156], for which the IC50 was 0.637 µM and 0.627 µM.
For the compound `CN(C)CCOc1nccc(-c2c(-c3cccc(Cl)c3)n[nH]c2C2CCN(C(=O)CO)CC2)n1` [Example 116], the IC50 came out at 0.727 µM.
Take `O=C(CO)N1CCC(c2[nH]nc(-c3cccc(F)c3F)c2-c2ccncn2)CC1` [Example 80]: the IC50 was determined as 2.45 µM.
Same read-out and setting: in the case of `CN(C)CCNc1nccc(-c2c(-c3ccc(F)c(C(F)(F)F)c3)n[nH]c2C2CCN(C(=O)CO)CC2)n1` [Example 118] it was 0.814 µM; in that of `C[C@H](O)C(=O)N1CCC(c2[nH]nc(-c3cc(C(F)(F)F)ccc3F)c2-c2ccncn2)CC1` [Example 111], 0.438 µM.
Take `O=C(CO)N1CCC(c2[nH]nc(-c3cc(F)cc(F)c3)c2-c2ccncn2)CC1` [Example 76]: the IC50 was determined as 6.2 µM.
As for `C[C@H](O)C(=O)N1CCC(c2[nH]nc(-c3cc(Cl)ccc3F)c2-c2ccncn2)CC1` [Example 110], the IC50 amounted to 0.255 µM.
For `CN(C)CCNc1nccc(-c2c(-c3ccc(F)c(C(F)(F)F)c3)n[nH]c2C2CCNCC2)n1` [Example 146], the IC50 came to 0.261 µM.
As for `COc1cc(Cl)ccc1-c1n[nH]c(C2CCN(C(=O)CO)CC2)c1-c1ccncn1` [Example 79], the IC50 is 19.3 µM.
`C[C@@H](N[C@H]1CC[C@H](c2[nH]nc(-c3ccc(Cl)cc3)c2-c2ccncn2)CC1)c1ccccc1` [Example 123]: the IC50 came out at 0.0427 µM.
`CN(C)CCOc1nccc(-c2c(-c3ccc(Cl)cc3)n[nH]c2C2CCN(C(=O)CO)CC2)n1` [Example 97]: the IC50 amounted to 0.377 µM.
Turning to `CC(C)C(N)C(=O)OCC(=O)N1CCC(c2[nH]nc(-c3ccc(Cl)cc3)c2-c2ccncn2)CC1` (centres unmarked) [Example 56], the IC50 worked out at 0.0402 µM.
Still for that read-out and setting: as for `CN1CCC(c2[nH]nc(-c3ccc(Cl)cc3F)c2-c2ccnc(NC3CCCC3)n2)CC1` [Example 168], the figure is 1 µM; as for `CC(C)(C)OC(=O)N1CCC(c2[nH]nc(-c3ccc(Cl)cc3)c2-c2ccnc(NC3CCCC3)n2)CC1` [Example 140], 0.01 µM.
`Fc1cc(Cl)ccc1-c1n[nH]c(C2CCNCC2)c1-c1ccnc(NC2CCCC2)n1` [Example 147]: the IC50 worked out at 0.0159 µM.
As for `CN(C)CCNc1nccc(-c2c(-c3ccc(Cl)cc3)n[nH]c2C2CCNCC2)n1` [Example 144], the IC50 was found to be 0.159 µM.

Usually IC50 stands for the concentration at which inhibition is half-maximal.
